How the values were obtained:
Assay type in all cases: cell-based
[1] = tested on: BRD2, BRD3, BRD4 and c-MYC; assay: Immunoblot of BRD proteins and c-MYC in leukemia cell lines; settings: different leukemia cell lines, 100 nM, within 3 hours
[2] = tested on: BRD4, BRD3 and c-MYC in HL60; assay: Immunoblot (protein level) in HL60; settings: HL60, 500 nM
Procedure: (§1) FIGS. 43A-43L illustrate effects of OTX015 at the protein level for BRD 4, BRD2 and BRD 3 as well as c-MYC. […] AML cell lines HL60, K562 (FIGS. 43A-43C; FIG. 43D-43F) and ALL cell lines Jurkat and RS4-11 (FIG. 43G-43I; FIG. 4JD-43L) were treated with OTX015 at 500 nM and compared to controls exposed to according DMSO. At indicated time-points proteins were extracted and immunoblotted with BRD4, BRD3, BRD2 or c-MYC antibodies after gel electrophoresis. […] One representative experiment out of three is shown.
(§2) The membranes were blocked with LiCor blocking buffer (LiCor, Lincoln, Nebr., USA) and incubated with the respective primary antibody: anti-BRD4 (Epitomics 5716-1, Burlingame, USA), anti-BRD3 (ab56342, AbCam, UK), anti-BRD2 (ab37633, AbCam, UK), anti c-MYC (sc-764 (N262), Santa Cruz, USA) and anti-GAPDH (Invitrogen 398600, Grand Island, USA). Blots were stained with either goat anti-rabbit InfraRedDye 680RD or goat anti-mouse InfraRedDye 800CWsecondary antibody (LiCor). Membranes were imaged using a LiCor Odyssey scanner. Boxes were manually placed around each band of interest, which returned near-infrared fluorescent values of raw intensity with intra-lane background subtracted using Odyssey 3.0 analytical software (LiCor).

[3] = tested on: c-MYC in Jurkat; assay: Immunoblot (protein level) in Jurkat; settings: 500 nM, 48 h and 72 h
Procedure: as §1, §2

[4] = tested on: KG1; assay: Apoptosis assessment (annexin V/PI flow cytometry)
Procedure: (§3) a total of 1×10^6 cellsderived from patients or cell lines were resuspended in 1 mL culture medium and incubated with the indicated dosages of OTX015 prepared freshly from 1 mM stock solution in DMSO. Control cells were incubated with the corresponding amount of dimethyl sulfoxide (DMSO 0.2-1%) to exclude toxicity of the excipient. Apoptotic cells were detected by cytofluorometric analysis using a FACScan (Becton Dickinson, Mountain View, USA). Cells were stained with propidium iodide (PI; 5 μg/mL; Becton Dickinson) and concomitantly for 15 minutes at RT with annexin-V-FITC (Becton Dickinson) according to the manufacturer's instructions to determine outer membrane phosphatidyl serine exposure. Data were analyzed with the Flowjo (Tree Star Inc., Ashland, USA) flow cytometry software.

[5] = tested on: K562; assay: Apoptosis assessment (annexin V/PI flow cytometry)
Procedure: as §3

[6] = tested on: Jurkat; assay: Apoptosis assessment (annexin V/PI flow cytometry)
Procedure: as §3

[7] = tested on: c-MYC; assay: QT-PCR of c-MYC in leukemia cell lines; settings: all cell lines, 250 nM and 500 nM, 48 h
Procedure: The oncogene c-MYC is thought to be activated by BRD4 and is crucial for leukemia maintenance. […] We determined basal gene expression levels of c-MYC in different leukemia cell lines showing heterogeneous results without clear correlation to biologic effects of Compound (1-1) in regard to MTT, apoptosis or cell cycle effects (FIGS. 42A and 42B).
The total RNA obtained after extraction with TRIZOL (Invitrogen, Grand Island, USA) were titrated to 1 μg/uL and stored at −80° C. The complementary DNA (cDNA) was synthesized from 1 μg RNA. The RQ-PCR reactions (BRD2, BRD3, BRD4, c-MYC and ABL) were performed in a volume of 25 ul from a tenth of the cDNA (equivalent to 100 ng of RNA) on a thermocycler ABI7900HT in standard mode (1 cycle of 2 minutes at 50° C.-10 minutes at 95° C. followed by 50 cycles of 15 seconds at 95° C.-1 minute at 60° C.).

[8] = tested on: Ph+ALL patient cells; assay: Apoptosis in primary patient cells treated ex vivo; settings: 1 Ph+ ALL patient sample ex vivo, 72 h, 250 and 500 nM
Procedure: (§4) FIGS. 44A-44D show effects of OTX015 on primary patient cells. 5 samples from AML patients and 2 ALL, including 1 ALL Ph+ patient, were treated ex vivo with OTX015. OTX015 induced apoptosis in primary AML patient samples at various degrees ranging from 35-85% (FIG. 6). The Ph+ALL patient appeared to be resistant. OTX015 induced apoptosis in primary cells of the AML and ALL patients. Mononuclear cells were obtained from bone marrow (BM) or peripheral blood (PB) from AML and ALL patients. Cells were exposed 72 h with 250 and 500 nM of OTX015 and apoptosis was assessed by annexin V and PI staining. Results are shown with means±SD from duplicates of one experiment.
(§5) Mononuclear cells (MNC) from the bone marrow (BM) were isolated by Ficoll-Paque PLUS density gradient (Amersham Biosciences, Sunnyvale, USA). Patient cells were maintained in IMDM (Gibco) supplemented with 10% heat-inactivated fetal calf serum, 2 mM L-glutamine, 100 IU/mL penicillin, and 100 µg/mL streptomycin without growth factors.
(§6) a total of 1×10^6 cellsderived from patients or cell lines were resuspended in 1 mL culture medium and incubated with the indicated dosages of OTX015 prepared freshly from 1 mM stock solution in DMSO. […] Apoptotic cells were detected by cytofluorometric analysis using a FACScan (Becton Dickinson, Mountain View, USA). […] Data were analyzed with the Flowjo (Tree Star Inc., Ashland, USA) flow cytometry software. […]

[9] = tested on: primary AML patient samples; assay: Apoptosis in primary patient cells treated ex vivo; settings: 5 AML patient samples ex vivo, 72 h, 250 and 500 nM
Procedure: as §4, §5, §6

[10] = tested on: BRD4, BRD2 and BRD3; assay: RQ-PCR of BRD4, BRD2 and BRD3 in leukemia cell lines; settings: 250 nM and 500 nM, 48 h
[11] = tested on: ALL and AML cell lines; assay: Cell cycle analysis (PI flow cytometry)
Procedure: For conventional cell-cycle analysis, 1×10^6 cells were harvested, washed in PBS, and fixed in 70% ice cold ethanol. Cells were incubated with 100 μg/mL RNAse (Sigma, Saint-Quentin Fallavier, France) and stained with PI (25 μg/mL, Becton Dickinson) followed by an incubation period of 30 minutes at 37° C. Subsequently, cell-cycle distribution was determined by cytofluorometric analysis. Data were analyzed with the Flowjo (Tree Star Inc., Ashland, USA) flow cytometry software.

Cc1sc2c(c1C)C(c1ccc(Cl)cc1)=N[C@@H](CC(=O)Nc1ccc(O)cc1)c1nnc(C)n1-2 [Compound (1-1), 2-[(6S)-4-(4-chlorophenyl)-2,3,9-trimethyl-6H-thienol[3,2-f]-[1,2,4]triazolo[4,3-a][1,4]diazepin-6-yl]-N-(4-hydroxyphenyl)acetamide dihydrate]
regulation of BRD2, BRD3, BRD4 and c-MYC at the protein level [1]: rapid down-regulation of BRD2, BRD3 and BRD4 associated with c-MYC down-regulation
c-MYC protein level ([2]; 24 h): transient downregulation
BRD4 and BRD3 protein level ([2]; 72 h): remained unaffected
c-MYC protein level [3]: c-MYC downregulation
induction of apoptosis at lower dose ([4]; KG1, 10 nM, 72 hours): induced apoptosis after prolonged incubation
apoptosis ([4]; KG1, 96 hours at 10 nM): > 90%
delayed apoptosis after drug washout ([5]; K562, 6 hours exposure, read at 96 hours): but not in the less sensitive K562
apoptosis ([5]; K562, 96 hours at 10 nM): 20%
apoptotic cells ([5]; K562, at 24 hours): 20%
delayed apoptosis after drug washout ([6]; 6 hours exposure, read at 96 hours): significant delayed apoptosis
apoptosis ([6]; 96 hours at 10 nM): > 90%
c-MYC gene expression [7]: c-MYC downregulation was observed in all cell lines
sensitivity to apoptosis induction [8]: resistant
apoptosis [9]: 35-85%
down regulation of BRD4, BRD2 or BRD3 at the cDNA level [10]: not able to detect a consistent down regulation
upregulation of BRD3 and BRD2 at the cDNA level [10]: significant upregulation of BRD3 and BRD2 in KG1, K562 and Jurkat and increase of BRD2 in KG1 and HL60
S phase fraction ([11]; 48 h, AML and ALL cell lines): decreased S phase fraction in almost all cell lines
cell cycle arrest ([11]; all cell lines): induced cell cycle arrest in all cell lines

— patent US20160158245A1, “PHARMACEUTICAL FORMULATION CONTAINING THIENOTRIAZOLODIAZEPINE COMPOUNDS” (ONCOETHIX GmbH, priority 2013, published 2016)
